This passage reports IC50 and melting point results from US7494984B2, “Substituted imidazo[1,2-a]pyrimidines as HIV viral DNA integrase inhibitors” (priority 2005, dated 2009).

The target in one data set is T1, HIV-integrase (Human immunodeficiency virus type 1 group M subtype B, UniProt P12497).
T1 construct: Recombinant integrase (0.26 ng) was incubated with the beads
Description: HIV-Integrase Inhibition Activity (SPA strand transfer assay). The format is biochemical. The settings on record: recombinant integrase, biotin labeled substrate DNA on SPA beads, P33 labeled target DNA; read-out: Activity (IC50 class, HIV-integrase inhibition). As to the method:
HIV-Integrase Inhibition Activity. To evaluate in-vitro activity against HIV-integrase, 5 pmole of biotin labeled substrate DNA was bound to 100 μg of Streptavidin coated PVT SPA beads (Amersham Pharmacia Biotech). Recombinant integrase (0.26 ng) was incubated with the beads for 90 min at 37° C. Unbound enzyme was removed by washing the complex followed by addition of inhibitors and 0.1 fmol of P33 labeled target DNA. The reaction was stopped by adding EDTA to a final concentration of 10 mM. Samples were counted in TopCountNXT (Packard) and the CPM was used as a measure of integration. The reaction condition was as described in A. Engelman and R. Craigie, J. Virol. 69, 5908-5911 (1995). The sequences of substrate and target DNA were described in Nucleic Acid Research 22,1121-1122 (1994). Activity equal to A refers to a compound having IC50=0.005 to 0.010 μM while B and C denote compounds having IC50=0.010 to 0.030 μM and IC50>0.030 μM respectively.
Consider `CN1CCn2c1nc(C(=O)NCc1ccc(F)cc1)c(O)c2=O` [Example 1, N-(4Fluorobenzyl)-6-hydroxy-1-methyl-5-oxo-1,2,3,5-tetrahydroimidazo[1,2-a]pyrimidine-7-carboxamide], for which the IC50 lay within 10 to 30 nM.
Still for that read-out and setting: the result for `Cc1cc(CNC(=O)c2nc3n(c(=O)c2O)CCN3C)ccc1F` [Example 2, N-(4-Fluoro-3-methylbenzyl)-6-hydroxy-1-methyl-5-oxo-1,2,3,5-tetrahydroimidazo[1,2-a]pyrimidine-7-carboxamide] reads 10 to 30 nM; that for `CNC(=O)c1cc(F)ccc1CNC(=O)c1nc2n(c(=O)c1O)CCN2C` [Example 3, N-(4-Fluoro-2-(methylcarbamoyl)benzyl)-6-hydroxy-1-methyl-5-oxo-1,2,3,5-tetrahydroimidazo[1,2-a]pyrimidine-7-carboxamide], 10 to 30 nM.
On the same count and under the same terms, the result for `CC(C)N1CCn2c1nc(C(=O)NCc1ccc(F)cc1)c(O)c2=O` [Example 4, N-(4-Fluorobenzyl)-6-hydroxy-1-isopropyl-5-oxo-1,2,3,5-tetrahydroimidazo[1,2-a]pyrimidine-7-carboxamide] reads 10 to 30 nM.
As to `Cc1cc(CNC(=O)c2nc3n(c(=O)c2O)CCN3C(C)C)ccc1F` [Example 5, N-(4-Fluoro-3-methylbenzyl)-6-hydroxy-1-isopropyl-5-oxo-1,2,3,5-tetrahydroimidazo[1,2-a]pyrimidine-7-carboxamide], the half-inhibitory concentration (IC50) lay within 10 to 30 nM.
On the same count and under the same terms, the result for `CNC(=O)c1cc(F)ccc1CNC(=O)c1nc2n(c(=O)c1O)CCN2C(C)C` [Example 6, N-(4-Fluoro-2-(methylcarbamoyl)benzyl)-6-hydroxy-1-isopropyl-5-oxo-1,2,3,5-tetrahydroimidazo[1,2-a]pyrimidine-7-carboxamide] reads 10 to 30 nM.
As for `CC(C)N1CCn2c1nc(C(=O)NCc1ccc(F)cc1-n1cncn1)c(O)c2=O` [Example 7, N-(4-Fluoro-2-(1H-1,2,4-triazol-1-yl)benzyl)-6-hydroxy-1-isopropyl-5-oxo-1,2,3,5-tetrahydroimidazo[1,2-a]pyrimidine-7-carboxamide], the IC50 was 10 to 30 nM.
Take `CC(C)N1CCn2c1nc(C(=O)NCc1ccc(F)cc1S(=O)(=O)N(C)C)c(O)c2=O` [Example 8, N-(4-Fluoro-2-(N,N-dimethylsulfamoyl)benzyl)-6-hydroxy-1-isopropyl-5-oxo-1,2,3,5-tetrahydroimidazo[1,2-a]pyrimidine-7-carboxamide]: the IC50 was in the range of 5 to 10 nM.
The same measure, in the same setting: the result for `Cc1ncn(-c2cc(F)ccc2CNC(=O)c2nc3n(c(=O)c2O)CCN3C(C)C)n1` [Example 9, N-(4-Fluoro-2-(3-methyl-1H-1,2,4-triazol-1-yl)benzyl)-6-hydroxy-1-isopropyl-5-oxo-1,2,3,5-tetrahydroimidazo[1,2-a]pyrimidine-7-carboxamide] reads 10 to 30 nM.
For `Cc1ncnn1-c1cc(F)ccc1CNC(=O)c1nc2n(c(=O)c1O)CCN2C(C)C` [Example 10, N-(4-Fluoro-2-(5-methyl-1H-1,2,4-triazol-1-yl)benzyl)-6-hydroxy-1-isopropyl-5-oxo-1,2,3,5-tetrahydroimidazo[1,2-a]pyrimidine-7-carboxamide], the IC50 was more than 30 nM.
Consider `CCCCN1CCn2c1nc(C(=O)NCc1ccc(F)cc1)c(O)c2=O` [Example 11, N-(4-Fluorobenzyl)-1-butyl-6-hydroxy-5-oxo-1,2,3,5-tetrahydroimidazo[1,2-a]pyrimidine-7-carboxamide], for which the IC50 fell in the range of 5 to 10 nM.
With `CCCCN1CCn2c1nc(C(=O)NCc1ccc(F)c(C)c1)c(O)c2=O` [Example 12, N-(4-Fluoro-3-methylbenzyl)-1-butyl-6-hydroxy-5-oxo-1,2,3,5-tetrahydroimidazo[1,2-a]pyrimidine-7-carboxamide], the half-maximal inhibitory concentration (IC50) was 10 to 30 nM.
`CCCCN1CCn2c1nc(C(=O)NCc1ccc(F)cc1C(=O)NC)c(O)c2=O` [Example 13, N-(4-Fluoro-2-(methylcarbamoyl)benzyl)-1-butyl-6-hydroxy-5-oxo-1,2,3,5-tetrahydroimidazo[1,2-a]pyrimidine-7-carboxamide]: the IC50 was 10 to 30 nM.
On the same count and under the same terms, the result for `CCCCN1CCn2c1nc(C(=O)NCc1ccc(F)cc1S(=O)(=O)N(C)C)c(O)c2=O` [Example 14, N-(4-Fluoro-2-(N,N-dimethylsulfamoyl)benzyl)-1-butyl-6-hydroxy-5-oxo-1,2,3,5-tetrahydroimidazo[1,2-a]pyrimidine-7-carboxamide] reads 10 to 30 nM; that for `Cc1cc(CNC(=O)c2nc3n(c(=O)c2O)CCN3Cc2ccccc2)ccc1F` [Example 17, N-(4-Fluoro-3-methylbenzyl)-1-benzyl-6-hydroxy-5-oxo-1,2,3,5-tetrahydroimidazo[1,2-a]pyrimidine-7-carboxamide], 10 to 30 nM; that for `O=C(NCc1ccc(F)cc1)c1nc2n(c(=O)c1O)CCN2c1ccccc1` [Example 20, N-(4-Fluorobenzyl)-6-hydroxy-5-oxo-1-phenyl-1,2,3,5-tetrahydroimidazo[1,2-a]pyrimidine-7-carboxamide], 5 to 10 nM.
Still for that read-out and setting: the result for `Cc1cc(CNC(=O)c2nc3n(c(=O)c2O)CCN3c2ccccc2)ccc1F` [Example 21, N-(4-Fluoro-3-methylbenzyl)-6-hydroxy-5-oxo-1-phenyl-1,2,3,5-tetrahydroimidazo[1,2-a]pyrimidine-7-carboxamide] reads 5 to 10 nM; that for `CNC(=O)c1cc(F)ccc1CNC(=O)c1nc2n(c(=O)c1O)CCN2c1ccccc1` [Example 22, N-(4-Fluoro-2-(methylcarbamoyl)benzyl)-6-hydroxy-5-oxo-1-phenyl-1,2,3,5-tetrahydroimidazo[1,2-a]pyrimidine-7-carboxamide], 10 to 30 nM; that for `O=C(NCc1ccc(F)cc1-n1cncn1)c1nc2n(c(=O)c1O)CCN2c1ccccc1` [Example 23, N-(4-Fluoro-2-(1H-1,2,4-triazol-1-yl)benzyl)-6-hydroxy-5-oxo-1-phenyl-1,2,3,5-tetrahydroimidazo[1,2-a]pyrimidine-7-carboxamide], 5 to 10 nM.
Same read-out and setting: the result for `Cc1ncn(-c2cc(F)ccc2CNC(=O)c2nc3n(c(=O)c2O)CCN3c2ccccc2)n1` [Example 24, N-(4-Fluoro-2-(3-methyl-1H-1,2,4-triazol-1-yl)benzyl)-6-hydroxy-5-oxo-1-phenyl-1,2,3,5-tetrahydroimidazo[1,2-a]pyrimidine-7-carboxamide] reads 5 to 10 nM.
Consider `Cc1ncnn1-c1cc(F)ccc1CNC(=O)c1nc2n(c(=O)c1O)CCN2c1ccccc1` [Example 25, N-(4-Fluoro-2-(5-methyl-1H-1,2,4-triazol-1-yl)benzyl)-6-hydroxy-5-oxo-1-phenyl-1,2,3,5-tetrahydroimidazo[1,2-a]pyrimidine-7-carboxamide], for which the IC50 was in the range of 10 to 30 nM.
The same measure, in the same setting: the result for `CN(C)S(=O)(=O)c1cc(F)ccc1CNC(=O)c1nc2n(c(=O)c1O)CCN2c1ccccc1` [Example 26, N-(4-Fluoro-2-(N,N-dimethylsulfamoyl)benzyl)-6-hydroxy-5-oxo-1-phenyl-1,2,3,5-tetrahydroimidazo[1,2-a]pyrimidine-7-carboxamide] reads 10 to 30 nM.
Same read-out and setting: the result for `O=C(NCc1ccc(F)cc1N1CCCC1=O)c1nc2n(c(=O)c1O)CCN2c1ccccc1` [Example 27, N-(4-Fluoro-2-(2-oxopyrrolidin-1-yl)benzyl)-6-hydroxy-5-oxo-1-phenyl-1,2,3,5-tetrahydroimidazo[1,2-a]pyrimidine-7-carboxamide] reads 10 to 30 nM; that for `O=C(NCc1ccc(F)cc1N1CCC1=O)c1nc2n(c(=O)c1O)CCN2c1ccccc1` [Example 28, N-(4-Fluoro-2-(2-oxoazetidin-1-yl)benzyl)-6-hydroxy-5-oxo-1-phenyl-1,2,3,5-tetrahydroimidazo[1,2-a]pyrimidine-7-carboxamide], 5 to 10 nM; that for `O=C(NCc1ccc(F)cc1)c1nc2n(c(=O)c1O)CCN2C1CCCCC1` [Example 32], 5 to 10 nM.
Still for that read-out and setting: the result for `Cc1cc(CNC(=O)c2nc3n(c(=O)c2O)CCN3C2CCCCC2)ccc1F` [Example 33] reads 5 to 10 nM; that for `O=C(NCc1ccc(F)cc1-n1cncn1)c1nc2n(c(=O)c1O)CCN2C1CCCCC1` [Example 34], 5 to 10 nM.
Regarding `CN(C)S(=O)(=O)c1cc(F)ccc1CNC(=O)c1nc2n(c(=O)c1O)CCN2C1CCCCC1` [Example 35], the IC50 is 10 to 30 nM.
For the compound `CNC(=O)c1cc(F)ccc1CNC(=O)c1nc2n(c(=O)c1O)CCN2CCOC` [Example 36], the IC50 lay in the range of 10 to 30 nM.
The same measure, in the same setting: the result for `COCCN1CCn2c1nc(C(=O)NCc1ccc(F)cc1-n1cncn1)c(O)c2=O` [Example 37] reads 10 to 30 nM.
`COCCN1CCn2c1nc(C(=O)NCc1ccc(F)cc1S(=O)(=O)N(C)C)c(O)c2=O` [Example 38]: the concentration for half-maximal inhibition (IC50) was more than 30 nM.
Still for that read-out and setting: the result for `COCCN1CCn2c1nc(C(=O)NCc1ccc(F)cc1-n1cnc(C)n1)c(O)c2=O` [Example 39] reads more than 30 nM; that for `CS(=O)(=O)c1cc(F)ccc1CNC(=O)c1nc2n(c(=O)c1O)CCN2c1ccccc1` [Example 40], 5 to 10 nM; that for `CCCCN1CCn2c1nc(C(=O)NCc1ccc(F)cc1-n1cncn1)c(O)c2=O` [Example 41], 10 to 30 nM.

Test system in another data set: not given
Assay: not given
Details: not given
Take `CN1CCn2c1nc(C(=O)NCc1ccc(F)cc1)c(O)c2=O` [Example 1, N-(4Fluorobenzyl)-6-hydroxy-1-methyl-5-oxo-1,2,3,5-tetrahydroimidazo[1,2-a]pyrimidine-7-carboxamide]: the melting point amounted to 212 °C.
Still for that read-out and setting: the result for `Cc1cc(CNC(=O)c2nc3n(c(=O)c2O)CCN3C)ccc1F` [Example 2, N-(4-Fluoro-3-methylbenzyl)-6-hydroxy-1-methyl-5-oxo-1,2,3,5-tetrahydroimidazo[1,2-a]pyrimidine-7-carboxamide] reads 187 to 189 °C; that for `CNC(=O)c1cc(F)ccc1CNC(=O)c1nc2n(c(=O)c1O)CCN2C(C)C` [Example 6, N-(4-Fluoro-2-(methylcarbamoyl)benzyl)-6-hydroxy-1-isopropyl-5-oxo-1,2,3,5-tetrahydroimidazo[1,2-a]pyrimidine-7-carboxamide], 205 °C (dec.).
Still for that read-out and setting: the result for `Cc1ncnn1-c1cc(F)ccc1CNC(=O)c1nc2n(c(=O)c1O)CCN2C(C)C` [Example 10, N-(4-Fluoro-2-(5-methyl-1H-1,2,4-triazol-1-yl)benzyl)-6-hydroxy-1-isopropyl-5-oxo-1,2,3,5-tetrahydroimidazo[1,2-a]pyrimidine-7-carboxamide] reads 212 °C; that for `CCCCN1CCn2c1nc(C(=O)NCc1ccc(F)cc1C(=O)NC)c(O)c2=O` [Example 13, N-(4-Fluoro-2-(methylcarbamoyl)benzyl)-1-butyl-6-hydroxy-5-oxo-1,2,3,5-tetrahydroimidazo[1,2-a]pyrimidine-7-carboxamide], 175 to 177 °C.

For orientation: IC50 means the concentration that gives 50% inhibition. In general, melting point refers to the temperature of the solid-liquid transition.
